Values of other authors as cited in patent publication US8853275B2, “Concurrent therapy regime/regimen for the treatment of acne related diseases” (Galderma Research & Development, priority 2008, dated 2014).

Conditions: when combined with BPO; unlike tretinoin

Stability in the presence of light: stable in the presence of light
Structure (SMILES): COc1ccc(-c2ccc3cc(C(=O)O)ccc3c2)cc1C12CC3CC(CC(C3)C1)C2 [Adapalene, 6-[3-(1-adamantyl)-4-methoxyphenyl]-2-naphtoïc acid]
